Several values for one entry are separate records, joined by “and”; a condition that tells them apart may be missing. Equal entries are not always repeated. Where two headings read alike, the source gives them in different places.
Columns and labels:
[1] = system: NCI-H1373-luc ICA tumor model; test: in vivo anti-tumor efficacy, intra-carotid artery metastatic brain tumor model (bioluminescence); parameters: species or system Nu/Nu mice; details: for T/C / TGI: day 21, from log 10 Bioluminescence
Description: The objective of this Example is to evaluate the in vivo anti-tumor efficacy of AMG510 (positive control KRAS G12C inhibitor), MRTX 849 (positive control KRAS G12C inhibitor) and HBI-2438 (a KRAS G12C inhibitor of the invention) in NCH-H1373-luc ICA, an intra-carotid artery metastatic brain tumor model, in Nu/Nu mice. HBI-2438 (the compound of Formula Ia) was supplied by Huyabio International, LLC. This intra-carotid artery model is well recognized in the art for evaluating the ability of a target compound to treat metastatic brain tumor.
All the procedures related to animal handling, care and the treatment in the study were performed according to the guidelines approved by the Institutional Animal Care and Use Committee (IACUC) of WuXi AppTec, following the guidance of the Association for Assessment and Accreditation of Laboratory Animal Care (AAALAC). At the time of routine monitoring, the animals were checked daily for tumor growth and any effects of treatments on normal behavior such as mobility, food and water consumption (by looking only), body weight gain/loss (body weights were measured twice per week), eye/hair matting and any other abnormal effect as stated in the protocol. Death and observed clinical signs were recorded on the basis of the numbers of animals within each subset.
Methods: The NCI-H1373-luc tumor cells were maintained in medium supplemented with 10% heat inactivated fetal bovine serum at 37° C. in an atmosphere of 5% CO2 in air. The tumor cells were routinely subcultured twice weekly. The cells growing in an exponential growth phase were harvested and counted for tumor inoculation. Each mouse was inoculated with NCI-H1373-luc tumor cells (0.5×10^5) in 100 μL of PBS. The animals were randomized and treatments were started when the Bioluminescence signal reached 8*10^6. After grouping, the bioluminescence measurements were taken once per week with IVIS (Lumina II).
Each mouse was inoculated with NCI-H1373-luc tumor cells (0.5×10^5) in 100 μL of PBS. The animals were randomized and treatments were started when the Bioluminescence signal reached 8*10^6. After grouping, the bioluminescence measurements were taken once per week with IVIS (Lumina II).
Tumor growth inhibition rate for test articles in the NCI-H1373-luc model was calculated based on log 10 Bioluminescence measurement at day 21 after the start of treatment, as shown in Table 3.

[2] = system: colorectal cancer xenograft model CR2528; test: in vivo therapeutic efficacy, subcutaneous HuPrime colorectal cancer xenograft model (tumor volume); parameters: species or system female BALB/c Nude mice; details: Day 20
Experimental: The above test articles were administered as single agent or in specific combination settings as described in Table 4. […] HBI-2438 and HBI-2376 (the compound of Formula Ia and the compound of Formula IIa, respectively) were supplied by Huyabio International, LLC.
(c) Tumor Inoculation: Tumor fragments from stock mice were harvested and used for inoculation into mice. Each mouse was inoculated subcutaneously in the right flank with CR2528 model tumor fragment (2-3 mm in diameter) for tumor development on May 25, 2022.
(d) Randomization: The randomization started when the mean tumor size reached 160 mm^3. 99 mice were enrolled in the study. All animals were randomly allocated to 11 study groups, 9 mice in each group. Randomization was performed based on “Matched distribution” method/“Stratified” method (StudyDirector™ software, version 3.1.399.19)/randomized block design. The date of randomization was denoted as day 0 (Jun. 13, 2022).
(§1) Tumor volumes were measured twice per week after randomization in two dimensions using a caliper, and the volume was expressed in mm^3 using the formula: “V=(L×W×W)/2, where V is tumor volume, L is tumor length (the longest tumor dimension) and W is tumor width (the longest tumor dimension perpendicular to L). Dosing as well as tumor and body weight measurements were conducted in a Laminar Flow Cabinet. The body weights and tumor volumes were measured by using StudyDirector™ software (version 3.1.399.19).
The treatments on both primary and secondary studies were performed for 3 weeks. The primary study was terminated on Day 21 with plasma and tumor samples collection. For secondary analysis tumor samples were collected after the final dose and were transferred in a sterile tube, to be frozen into liquid nitrogen. All the frozen tumor samples were stored in −80° C.

[3] = type: in vivo; details: for BW change: Day 20 vs Day 0
Experimental: Observation and Data Collection: After tumor cells inoculation, the animals were checked daily for morbidity and mortality. During routine monitoring, the animals were checked for any effects of tumor growth and treatments on behavior such as mobility, food and water consumption, body weight gain/loss (body weights were measured twice per week after randomization), eye/hair matting and any other abnormalities. Mortality and observed clinical signs were recorded for individual animals in detail.
as §1

[4] = 30 mg/kg PO QD, day 0 after start of treatment

## C=CC(=O)N1CCN(c2nc(=O)n(-c3c(C)ccnc3C(C)C)c3nc(-c4c(O)cccc4F)c(F)cc23)[C@@H](C)C1 [AMG-510, reference compound]
[1]; [4]
  log 10 Bioluminescence (mean ± SEM): 6.86 ± 0.09
[1]; 30 mg/kg PO QD, day 7
  log 10 Bioluminescence (mean ± SEM): 6.12 ± 0.06
[1]; 30 mg/kg PO QD, day 14
  log 10 Bioluminescence (mean ± SEM): 6.32 ± 0.25
[1]; 30 mg/kg PO QD, day 21
  log 10 Bioluminescence (mean ± SEM): 6.69 and 6.69 ± 0.3
[1]; 30 mg/kg PO QD
  T/C: 79.3%
  TGI: 111.5%

## C[C@@H]1OCC2(CCN(c3cnc(Sc4cccc(NC(=O)c5c(O)nc6n(c5=O)CCCC6)c4Cl)cn3)CC2)[C@@H]1N [HBI-2376, N-(3-((5-((3S,4S)-4-amino-3-methyl-2-oxa-8-azaspiro[4.5]decan-8-yl)pyrazin-2-yl)thio)-2-chlorophenyl)-2-hydroxy-4-oxo-6,7,8,9-tetrahydro-4H-pyrido[1,2-a]pyrimidine-3-carboxamide]
[2]; 5 mg/kg QD
  T/C: 27.18%
  TGI: 72.82%
  Tumor Volume (mean ± SEM): 469.69 ± 81.71 mm^3
[3]; 5 mg/kg QD
  Day 0 BW (mean ± SEM): 22.79 ± 0.69
  Day 20 BW (mean ± SEM): 22.03 ± 1.05
  BW change: −3.36%
[3]; 5 mg/kg QD, on Day 20
  Maximum mean BWL: −3.36% on

## C=CC(=O)N1C[C@@H]2C(=O)N(CCN(C)C)c3c(c4cc(Cl)c(-c5c(O)cccc5F)nc4n(-c4c(C)ccnc4C(C)C)c3=O)N2C[C@H]1C [HBI-2438]
[2]; 10 mg/kg QD
  T/C: 84.37%
  TGI: 15.63%
  Tumor Volume (mean ± SEM): 1458.01 ± 164.19 mm^3
[2]; 30 mg/kg QD
  T/C: 52.41%
  TGI: 47.59%
  Tumor Volume (mean ± SEM): 905.6 ± 108.46 mm^3
[2]; 100 mg/kg QD
  T/C: 43.69%
  TGI: 56.31%
  Tumor Volume (mean ± SEM): 754.97 ± 98 mm^3
[1]; 15 mg/kg PO QD, day 0 after start of treatment
  log 10 Bioluminescence (mean ± SEM): 6.86 ± 0.11
[1]; 15 mg/kg PO QD, day 7
  log 10 Bioluminescence (mean ± SEM): 6.49 ± 0.14
[1]; 15 mg/kg PO QD, day 14
  log 10 Bioluminescence (mean ± SEM): 6.44 ± 0.2
[1]; 15 mg/kg PO QD, day 21
  log 10 Bioluminescence (mean ± SEM): 6.58 and 6.58 ± 0.21
[1]; 15 mg/kg PO QD
  T/C: 78.1%
  TGI: 118.2%
[1]; [4]
  log 10 Bioluminescence (mean ± SEM): 6.86 ± 0.1
[1]; 30 mg/kg PO QD, day 7
  log 10 Bioluminescence (mean ± SEM): 6.09 ± 0.07
[1]; 30 mg/kg PO QD, day 14
  log 10 Bioluminescence (mean ± SEM): 5.86 ± 0.12
[1]; 30 mg/kg PO QD, day 21
  log 10 Bioluminescence (mean ± SEM): 6.00 and 6.00 ± 0.13
[1]; 30 mg/kg PO QD
  T/C: 71.2%
  TGI: 155.8%
[1]; 100 mg/kg PO QD, day 0 after start of treatment
  log 10 Bioluminescence (mean ± SEM): 6.86 ± 0.11
[1]; 100 mg/kg PO QD, day 7
  log 10 Bioluminescence (mean ± SEM): 5.92 ± 0.09
[1]; 100 mg/kg PO QD, day 14
  log 10 Bioluminescence (mean ± SEM): 6.04 ± 0.2
[1]; 100 mg/kg PO QD, day 21
  log 10 Bioluminescence (mean ± SEM): 6.09 and 6.09 ± 0.24
[1]; 100 mg/kg PO QD
  T/C: 72.2%
  TGI: 150.0%
[3]; 10 mg/kg QD
  Day 0 BW (mean ± SEM): 22.32 ± 0.57
  Day 20 BW (mean ± SEM): 22.19 ± 0.81
  BW change: −0.62%
[3]; 10 mg/kg QD, on Day 20
  Maximum mean BWL: −0.62% on
[3]; 30 mg/kg QD
  Maximum mean BWL: No BWL
  Day 0 BW (mean ± SEM): 22.54 ± 0.61
  Day 20 BW (mean ± SEM): 23.89 ± 0.58
  BW change: 6.12%
[3]; 100 mg/kg QD
  Maximum mean BWL: No BWL
  Day 0 BW (mean ± SEM): 21.91 ± 0.57
  Day 20 BW (mean ± SEM): 22.31 ± 0.71
  BW change: 1.86%

## C=C(F)C(=O)N1CCN(c2nc(OC[C@@H]3CCCN3C)nc3c2CCN(c2cccc4cccc(Cl)c24)C3)C[C@@H]1CC#N [MRTX849, reference compound]
[2]; 100 mg/kg QD
  T/C: 41.56%
  TGI: 58.44%
  Tumor Volume (mean ± SEM): 718.22 ± 151.89 mm^3
[1]; [4]
  log 10 Bioluminescence (mean ± SEM): 6.83 ± 0.14
[1]; 30 mg/kg PO QD, day 7
  log 10 Bioluminescence (mean ± SEM): 6.38 ± 0.21
[1]; 30 mg/kg PO QD, day 14
  log 10 Bioluminescence (mean ± SEM): 6.24 ± 0.18
[1]; 30 mg/kg PO QD, day 21
  log 10 Bioluminescence (mean ± SEM): 6.01 and 6.01 ± 0.14
[1]; 30 mg/kg PO QD
  T/C: 71.3%
  TGI: 152.6%

## C[C@@H]1OCC2(CCN(c3cnc(Sc4ccnc(N)c4Cl)c(N)n3)CC2)[C@@H]1N [TNO-155, reference compound]
[2]; 5 mg/kg QD
  T/C: 53.02%
  TGI: 46.98%
  Tumor Volume (mean ± SEM): 916.21 ± 100.32 mm^3

From patent US20240252490A1, “Combination Therapies Comprising Kras Inhibitors and SPH2 Inhibitors” (HUYABIO International, LLC, priority 2022, published 2024)
